Five molecules from patent US10759781B2, “Substituted guanidine derivatives” (UBE INDUSTRIES, LTD., priority 2015, dated 2020) can be followed below.

One series deals with T1, Human VAP-1 enzyme (Homo sapiens, UniProt Q16853).
T1 construct: purchased R&D Systems, Inc
T1 sequence (Q16853 1-763): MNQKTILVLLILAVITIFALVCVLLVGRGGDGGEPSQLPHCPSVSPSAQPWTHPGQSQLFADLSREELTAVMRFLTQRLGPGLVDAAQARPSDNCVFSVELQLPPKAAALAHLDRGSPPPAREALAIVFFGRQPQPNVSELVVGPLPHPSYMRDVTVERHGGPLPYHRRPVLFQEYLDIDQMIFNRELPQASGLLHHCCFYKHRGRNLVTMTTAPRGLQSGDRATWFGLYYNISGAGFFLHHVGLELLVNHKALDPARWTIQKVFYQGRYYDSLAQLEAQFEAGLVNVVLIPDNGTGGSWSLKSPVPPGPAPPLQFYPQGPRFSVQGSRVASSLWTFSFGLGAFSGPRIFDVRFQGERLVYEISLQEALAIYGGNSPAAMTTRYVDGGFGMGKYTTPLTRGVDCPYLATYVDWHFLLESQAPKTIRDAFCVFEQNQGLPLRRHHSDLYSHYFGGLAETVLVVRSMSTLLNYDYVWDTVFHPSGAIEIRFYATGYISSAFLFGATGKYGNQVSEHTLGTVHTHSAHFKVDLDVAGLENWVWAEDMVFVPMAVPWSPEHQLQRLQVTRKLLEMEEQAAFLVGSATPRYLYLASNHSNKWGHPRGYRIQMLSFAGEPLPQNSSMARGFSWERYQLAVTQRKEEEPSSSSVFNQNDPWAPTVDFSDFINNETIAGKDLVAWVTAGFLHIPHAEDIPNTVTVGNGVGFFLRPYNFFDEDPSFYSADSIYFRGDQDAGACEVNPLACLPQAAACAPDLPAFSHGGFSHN
Description: Human VAP-1 enzyme inhibition test. Particulars: 1 h; compound 30 nM; 14C-benzylamine 100 μM; read-out: inhibition ratio (human VAP-1 enzyme). Format: biochemical. Put shortly:
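Recombinant human VAP-1 pre-incubated 20 min at room temperature with compound in DMSO, then reacted with 14C-benzylamine (100 μM final) 1 h at 37 °C. Citric acid stop; oxidized product extracted into toluene/ethyl acetate and counted by liquid scintillation. Inhibition ratio relative to DMSO-only activity.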

The next series is described as follows: in vivo. On the set-up: species or system SD rats. The settings on record: SD, rat, po, 3 mg/kg. Here is the method:
Rat Pharmacokinetic (PK) Study (Concentration of Compound in Plasma after Oral Administration)
Seven to eight week old SD rats (weighing 180 to 250 g) were orally administered with a suspension of the compound in 0.5 W/V % methylcellulose 400 solution. Under anesthesia, the blood was collected from the jugular vein in EDTA tubes at 0.25, 0.5, 1, 2, 4, 6, 8 and 24 hours after the administration of the compound. The blood was centrifuged at 4° C. and 6000 g for 3 minutes to give plasma. Acetonitrile was added to the plasma, and the mixture was stirred with a shaker at 750 rpm for 3 minutes and was deproteinized by centrifugation at 3700 rpm for 2 minutes. Thus, the obtained sample was analyzed by LC/MS under the following conditions.
The concentration of the compound in the plasma at each blood sampling time was determined by an internal standard method, and AUC all (Area Under Curve) was calculated by a trapezoidal method.
The following LC and MS systems were used for measurement.
LC: CBM 30 series manufactured by Shimadzu Corporation
Column: Phenomenex Kinetex C18 (50×2.1 mm, 2.6 μm)
Column temperature: 40° C.
Mobile phase A: 0.1% aqueous formic acid solution, mobile phase B: 0.1% formic acid,
50% acetonitrile/methanol mixture
MS: 3200 manufactured by SCIEX

With `CON=C1CN(c2ncc(-c3cccc(COC(=O)NC(=N)N)c3F)cc2F)C1` [Example 36, 2-fluoro-3-{5-fluoro-6-[3-(methoxyimino)azetidin-1-yl]pyridin-3-yl}benzyl carbamimidoylcarbamate], the inhibition at 0.03 µM at Human VAP-1 enzyme is no less than 50%. The molecule further registered an AUC in the series “in vivo” of no less than 1000 ng·h/mL.

As for `[2H]C([2H])([2H])ON=C1CN(c2ncc(-c3cccc(COC(=O)NC(=N)N)c3F)cc2F)C1` [Example 37, 2-fluoro-3-(5-fluoro-6-{3-[(methoxy-d3)imino]azetidin-1-yl}pyridin-3-yl)benzyl carbamimidoylcarbamate], the inhibition at 0.03 µM on Human VAP-1 enzyme was no less than 50%. In addition, the AUC in the series “in vivo” is no less than 1000 ng·h/mL.

For `N=C(N)NC(=O)OCc1cccc(-c2cnc(N3CC(=NOCCC(O)CO)C3)c(F)c2)c1F` (stereo not shown) [Example 95, 3-(6-{3-[(3,4-Dihydroxybutoxy)imino]azetidin-1-yl}-5-fluoropyridin-3-yl)-2-fluorobenzyl carbamimidoylcarbamate], at Human VAP-1 enzyme, the inhibition at 0.03 µM is no less than 50%. In “in vivo”, this molecule yielded an AUC of no less than 1000 ng·h/mL.

With `N=C(N)NC(=O)OCc1cccc(-c2cnc(N3CC(=NOCC(CO)CO)C3)c(F)c2)c1F` [Example 96, 2-Fluoro-3-{5-fluoro-6-[3-{[3-hydroxy-2-(hydroxymethyl)propoxy]imino}azetidin-1-yl]pyridin-3-yl}benzyl carbamimidoylcarbamate], at Human VAP-1 enzyme, the inhibition at 0.03 µM is no less than 50%. In the series “in vivo”, the AUC was no less than 1000 ng·h/mL.

Take `N=C(N)NC(=O)OCc1cccc(-c2cnc(N3CC(=NOCC(F)CO)C3)nc2)c1F` (stereo not shown) [Example 102, 2-Fluoro-3-(2-{3-[(2-fluoro-3-hydroxypropoxy)imino]azetidin-1-yl}pyrimidin-5-yl)benzyl carbamimidoylcarbamate]: on Human VAP-1 enzyme, the inhibition at 0.03 µM is no less than 50%. For the same molecule, the AUC in the series “in vivo” is no less than 1000 ng·h/mL.

By AUC is commonly meant concentration integrated over time.
